Assay results reported in a melting point compilation (Tetko et al.; mined from patent text by program, amines drawn as free bases though some values may be those of a salt).

Structure (SMILES)	melting point
O=C(c1ccccc1)c1cccc2c1CCCC2C(=O)O (stereo unspecified)	164 to 165 °C
CCOC(=O)C(C)(C)n1c(=O)[nH]c2c(OC)cccc2c1=O	144 to 145 °C
Cc1c(-c2ccccc2)oc2c(C(=O)OCCCBr)cccc2c1=O	114 to 115 °C
Cc1ccc(N)c(Cl)c1C#N	117 to 119 °C
CC(C(N)=O)c1ccc(-n2cc(Cl)cn2)c(Cl)c1 (stereo unspecified)	131 to 132 °C
Cc1nc(C(Cl)(Cl)Cl)nc(O)c1Cl	130 to 145 °C
Cc1cc([N+](=O)[O-])c(Cl)c([N+](=O)[O-])c1CBr	115 to 120 °C
CCNc1nc(C)c(-c2ccncc2)s1	129 to 131 °C
[N-]=[N+]=NCC1Cc2cc(I)c3[nH]c(=O)ccc3c2O1 (stereo unspecified)	175 °C
CCCCn1c(S)nc2ccccc2c1=O	167 to 172 °C
CCOC(=O)Nc1ccc(-c2cccs2)s1	76 °C
CCCCCCN(C)C(=O)c1cccc(CN2C(=O)C3(COc4cc5c(cc43)CCO5)c3ccccc32)c1 (stereo unspecified)	73 to 74 °C
Cc1cc(CSCCC(=C(N)NCC(O)c2ccccc2)[N+](=O)[O-])sc1CN(C)C (stereo unspecified)	114 to 115 °C
O=C(O)[C@H](Cc1ccc(C(F)(F)F)cc1)[C@@H](O)c1ccccc1 (racemic)	138 to 139 °C
N#CCC(O)(c1ccc(Br)cc1)c1ccc(-c2ccc(Br)cc2)cc1 (stereo unspecified)	154 °C
Cc1c(NC(=O)c2ccc(C3CCCCC3)cc2)ccc2cc(CN3CCCC3)cnc12	178 to 179 °C
COc1ccccc1CC(=O)NCc1cccs1	84 °C
Nc1nc(N2CCN(CCCC3(c4ccc(F)cc4)OCCO3)CC2)ccc1[N+](=O)[O-]	117 to 118 °C
CC1(C)NCCc2c1oc1cc(S(=O)(=O)c3cccc(F)c3)ccc21	110 to 114 °C
c1ccc(CCn2cc3c(ncn4nc(-c5ccco5)nc34)n2)cc1	268 to 270 °C
CCCCOc1c(CNC(=O)OC(C)(C)C)n(CC(C)(C)C)c(=O)c2cc(F)ccc12	149 to 150 °C

Structure (SMILES)	melting point
N#Cc1cc(F)ccc1Oc1ccc(-c2cn(C3CCOCC3)c3ncnc(N)c23)cc1	216 to 217 °C
O=[N+]([O-])CCN1CCC(n2ccc(-c3ccc(F)cc3)c2-c2ccncc2)CC1	172 to 173 °C
O=C1OC(N2C(=O)NC(=O)C23C(=O)N(Cc2ccc(Cl)c(Cl)c2)c2ccccc23)c2ccccc21 (stereo unspecified)	154 to 158 °C
Cn1cc(C(N)=O)c(=O)c2ccc(C(F)(F)F)cc21	288 to 292 °C
CCC(=O)c1ccsc1N(C)C(C)=O	78.5 to 79.5 °C
CC(C)(C)c1cc(-n2ccc(=O)[nH]c2=O)cc(-c2ccc3cc(NS(C)(=O)=O)ccc3c2)c1Cl	> 280 °C
N#CC1(C(C(=O)O)C(=O)O)CCCCC1	99.9 °C
O=c1ccn(-c2ccccc2)nc1-c1ccnn1-c1ccccc1	179 to 180 °C
O=C(c1ccc(F)cc1)C1CC2CCN1CC2 (stereo unspecified)	68 to 69 °C
CS(=O)c1ccc(COS(C)(=O)=O)cc1 (stereo unspecified)	63 to 65 °C
Cn1c(-c2c(Cl)cccc2Cl)nc2cc(C(=O)O)ccc21	> 250 °C
CCCn1cc(C(=O)O)c(=O)c2cc(C)sc21	207 to 208 °C
CC(=O)Nc1ncc(/C=C\c2ccc([N+](=O)[O-])cc2)s1	221 to 223 °C
COc1ccccc1C(c1ccnc2ccccc12)C(C#N)(Cc1cccnc1)C(=O)OC(C)(C)C (stereo unspecified)	225 to 228 °C
CC(C)(C)C(=O)Oc1n[nH]c(=O)c2nc3cc(Cl)ccc3c(O)c12	352 to 357 °C
COc1ccc2c(c1)C(CCC(C)C)(C(F)(F)F)OCC(=O)N2 (stereo unspecified)	123 to 130 °C
COc1ccc(-c2cc(C(C)(O)C(F)(F)F)[nH]c2-c2ccc(OC)cc2)cc1 (stereo unspecified)	111 to 112 °C
CNC(=O)[C@@H](NC(=O)[C@H](CC(=O)NOCc1ccccc1)CC(C)C)C(C)(C)C	128 to 129 °C
CCNC(=S)Nc1ccccc1N1CCOCC1	118 to 120 °C
COC(=O)C(=Cc1cccc([N+](=O)[O-])c1)C(=O)OC	78 to 80 °C
